Key:
GLUTag cells [1] = test: Calcium flux (Calcium 6) in control-transduced GLUTag cells; format: cell-based, murine; set-up: Mean Diff.: unit not given here; conditions: for Mean Diff.: Figure 1B, Ctl
Protocol: (§1) GLUTag cells were maintained in Dulbecco’s Modified Eagle Medium (DMEM) supplemented with 10% fetal bovine serum and 1% penicillin–streptomycin in a humidified incubator at 37 °C and 5% CO2. For adenovirus transduction, GLUTag cells were seeded into poly-D-lysine coated 96-well plates or 4-chamber slides. The next day, cells were transduced with adenoviruses (100–1250 viral particles per cell at time of seeding) as indicated. After 24–30 h, adenovirus-containing media was changed to serum-free growth media for overnight serum starvation. The following day, GLUTag cells were used for cAMP or calcium signaling assays, GLP-1 secretion assays, or immunostaining and imaging.
(§2) GLUTag cells were seeded into black, clear bottom, poly-D-lysine-coated 96-well plates. Cells were transduced and serum starved as specified above. Growth medium was then replaced with 100 μL/well assay buffer (HBSS, 20 mM HEPES, pH 7.4) and 100 μL/well Calcium 6 loading dye (R8190; Molecular Devices, San Jose, CA, USA). During dye loading, cells were incubated at 37 °C and 5% CO2 for 2 h. MDL29,951 or KCl was added to the wells and fluorescence (485 nm excitation, 525 nm emission, and 515 nm automatic emission cutoff) was measured using a Molecular Devices FlexStation3 (Molecular Devices) at 37 °C. For experiments with PTX, cells were pretreated with 100 ng/mL PTX overnight and 100 ng/mL PTX was included with Calcium 6 loading dye for calcium flux assays. For experiments with YM-254890, cells were pretreated for 30 min at 37 °C.

GLUTag cells [2] = test: GLP-1 secretion from control-transduced or untransduced GLUTag cells; format: cell-based, murine
Protocol: as §1
(§3) GLUTag cells were seeded into poly-D-lysine-coated 96-well plates and transduced with adenovirus as specified above and then tested for GLP-1 secretion. Medium was removed and cells were washed two times with GLP-1 secretion buffer (138 mM NaCl, 4.5 mM KCl, 4.2 mM NaHCO3, 2.5 mM CaCl2, 1.2 mM MgCl2, 10 mM HEPES, 1 mM glucose, and 0.1% bovine serum albumin, pH 7.4). Cells were stimulated for 2 h with indicated treatments diluted in GLP-1 secretion buffer for a total volume of 200 µL/well at 37 °C and 5% CO2. Plates were then centrifuged at 300× g for 1 min at 4 °C, and 75 µL of the supernatant was removed and frozen at −80 °C until subsequent GLP-1 quantification. Total GLP-1 was quantified using the Meso Scale Discovery Total GLP-1 V-PLEX kit (Rockville, MD, USA; K1503PD) according to manufacturer’s instructions. For PTX treatment conditions, cells were pretreated with 100 ng/mL PTX overnight. For experiments with YM-254890, cells were pretreated for 15 min at 37 °C and 5% CO2.

hGPR17L-V96M [3] = biological target: T1, hGPR17L-V96M (Homo sapiens, UniProt Q13304, V96M); test: Calcium flux in GLUTag cells expressing hGPR17L-V96M; format: cell-based; conditions: for Mean Diff. (Tukey's multiple comparisons test, Figure 4C): hGPR17L-V96M
T1 construct: host or cells: GLUTag cells, adenoviral transduction
Protocol: as §1, §2

hGPR17L-V96M [4] = biological target: T1, hGPR17L-V96M; test: GLP-1 secretion from GLUTag cells expressing hGPR17L-V96M; format: cell-based; conditions: 100 µM MDL29,951, GLUTag hGPR17L-V96M
Protocol: as §1
as §3, with “Cells were stimulated for 2 h with indicated treatments diluted in GLP-1 secretion buffer for a total volume of 200 µL/well at 37 °C and 5% CO2.” left out, “For PTX treatment conditions, cells were pretreated with 100 ng/mL PTX overnight. For experiments with YM-254890, cells were pretreated for 15 min at 37 °C and 5% CO2.” left out

hGPR17S [5] = biological target: T2, hGPR17S (Homo sapiens, UniProt Q13304); test: GloSensor cAMP in HEK293 cells transfected with hGPR17S; format: cell-based
T2 construct: host or cells: HEK293 cells (ATCC CRL-1573), transient transfection
Protocol: (§4) HEK293 cells were maintained and transfected as previously described.
(§5) Live-cell, real-time cAMP measurements were performed using Promega (Madison, WI, USA) GloSensor cAMP luminescent biosensor technology. Glosensor cAMP experiments were conducted as previously described in GLUTag cells and HEK293 cells.

HEK293 cells = test: GloSensor cAMP in HEK293 cells transfected with empty vector (EV); format: cell-based; conditions: 100 μM MDL29,951, 3 µM forskolin
Protocol: as §4, §5

hGPR17L = hGPR17L (Homo sapiens, UniProt Q13304); test: Calcium mobilization in HEK293 cells transfected with hGPR17L; format: cell-based
Protocol: as §4
(§6) Calcium flux in HEK293 cells was measured as previously described.

hGPR17S [6] = biological target: T2, hGPR17S; test: Calcium mobilization in HEK293 cells transfected with hGPR17S; format: cell-based
Protocol: as §4, §6

mGPR17 [7] = biological target: T3, mGPR17 (Mus musculus, UniProt Q6NS65); test: Calcium mobilization in HEK293 cells transfected with mGPR17; format: cell-based
Protocol: as §4, §6

mGPR17 [8] = biological target: T3, mGPR17; test: Calcium flux in GLUTag cells expressing mGPR17; format: cell-based; set-up: host or cells: GLUTag cells, adenoviral transduction; conditions: for Mean Diff. (Tukey's multiple comparisons test, Figure 4C): mGPR17
Protocol: as §1, §2

mGPR17 [9] = biological target: T3, mGPR17; test: GLP-1 secretion from GLUTag cells expressing mGPR17; format: cell-based; set-up: host or cells: GLUTag cells, adenoviral transduction; conditions: 100 µM MDL29,951, GLUTag mGPR17
Protocol: as §1
as §3, with “Cells were stimulated for 2 h with indicated treatments diluted in GLP-1 secretion buffer for a total volume of 200 µL/well at 37 °C and 5% CO2.” left out, “For PTX treatment conditions, cells were pretreated with 100 ng/mL PTX overnight. For experiments with YM-254890, cells were pretreated for 15 min at 37 °C and 5% CO2.” left out

[10] = log [MDL29,951] (M) -4.5 vs. Vehicle
[11] = log [MDL29,951] (M) -5.0 vs. Vehicle
[12] = log [MDL29,951] (M) -5.5 vs. Vehicle
[13] = log [MDL29,951] (M) -6.0 vs. Vehicle
[14] = log [MDL29,951] (M) -6.4 vs. Vehicle
[15] = log [MDL29,951] (M) -6.9 vs. Vehicle
[16] = log [MDL29,951] (M) -7.4 vs. Vehicle
[17] = log [MDL29,951] (M) -7.9 vs. Vehicle
[18] = log [MDL29,951] (M) -8.3 vs. Vehicle
[19] = log [MDL29,951] (M) -8.8 vs. Vehicle
[20] = HEK293 mGPR17 versus hGPR17L and hGPR17S

Sequence of hGPR17L (Q13304 whole entry): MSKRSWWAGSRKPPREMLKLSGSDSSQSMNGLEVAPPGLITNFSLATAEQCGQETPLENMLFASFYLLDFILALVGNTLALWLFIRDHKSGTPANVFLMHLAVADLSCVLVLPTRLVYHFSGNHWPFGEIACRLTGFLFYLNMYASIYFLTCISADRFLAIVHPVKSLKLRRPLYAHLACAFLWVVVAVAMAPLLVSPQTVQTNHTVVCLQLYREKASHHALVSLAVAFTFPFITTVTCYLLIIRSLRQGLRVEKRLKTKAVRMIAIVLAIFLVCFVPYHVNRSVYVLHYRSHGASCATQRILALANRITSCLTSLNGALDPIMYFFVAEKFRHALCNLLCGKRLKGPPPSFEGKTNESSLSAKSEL
T1 sequence (Q13304 whole entry V96M): as the sequence (Q13304 whole entry) above, with V96M counted along it
T3 sequence (Q6NS65 whole entry): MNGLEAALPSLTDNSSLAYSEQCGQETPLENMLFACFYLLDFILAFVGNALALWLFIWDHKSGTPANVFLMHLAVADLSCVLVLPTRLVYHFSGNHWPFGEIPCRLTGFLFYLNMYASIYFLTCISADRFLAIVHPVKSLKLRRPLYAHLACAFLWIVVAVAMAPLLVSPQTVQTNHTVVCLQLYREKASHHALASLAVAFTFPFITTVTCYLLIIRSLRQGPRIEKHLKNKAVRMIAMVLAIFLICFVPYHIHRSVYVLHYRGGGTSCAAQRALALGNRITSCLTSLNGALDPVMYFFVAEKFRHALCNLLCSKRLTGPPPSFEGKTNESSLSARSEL
T2 sequence (Q13304 29-367): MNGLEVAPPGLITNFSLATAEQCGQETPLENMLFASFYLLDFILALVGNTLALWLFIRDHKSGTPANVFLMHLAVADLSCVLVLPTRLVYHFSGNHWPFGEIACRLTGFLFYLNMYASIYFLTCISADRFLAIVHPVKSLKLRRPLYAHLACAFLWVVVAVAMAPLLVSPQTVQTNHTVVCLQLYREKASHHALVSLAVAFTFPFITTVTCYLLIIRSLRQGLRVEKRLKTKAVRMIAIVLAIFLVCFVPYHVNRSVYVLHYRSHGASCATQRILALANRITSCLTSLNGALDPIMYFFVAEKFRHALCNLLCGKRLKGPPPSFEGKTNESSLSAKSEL

## O=C(O)CCc1c(C(=O)O)[nH]c2cc(Cl)cc(Cl)c12 [MDL29,951]
GLUTag cells [1]; 30 µM MDL29,951, control-transduced cells
  peak ΔF/F, calcium flux: 0.01 ± 0.01
GLUTag cells [1]; [10]
  Mean Diff.: -0.01567
GLUTag cells [1]; [11]
  Mean Diff.: -0.01433
GLUTag cells [1]; [12]
  Mean Diff.: -0.0003333
GLUTag cells [1]; [13]
  Mean Diff.: 0.0006667
GLUTag cells [1]; [14]
  Mean Diff.: 0.01533
GLUTag cells [1]; [15]
  Mean Diff.: 0.002
GLUTag cells [1]; [16]
  Mean Diff.: 0.002667
GLUTag cells [1]; [17]
  Mean Diff.: 0.004333
GLUTag cells [1]; [18]
  Mean Diff.: -0.001667
GLUTag cells [1]; [19]
  Mean Diff.: -0.0003333
GLUTag cells [2]; 100 nM MDL29,951, control-transduced cells
  effect on F/I-stimulated GLP-1 secretion: no effect
GLUTag cells [2]; 100 nM or 100 µM MDL29,951, control-transduced
  effect on GLP-1 secretion under basal conditions: no effect
GLUTag cells [2]; 100 µM MDL29,951, control adenovirus
  effect on F/I-stimulated GLP-1 secretion: no effect
hGPR17L-V96M [3]; GLUTag hGPR17L-V96M
  maximal calcium stimulation, % of that observed for hGPR17L-WT: 27 ± 1.5%
  pEC50, calcium mobilization: 6.24 ± 0.07
hGPR17L-V96M [3]; GLUTag hGPR17L-V96M, read-out: EC50, calcium mobilization
  EC50: 0.58 µM
hGPR17L-V96M [3]; [10]
  Mean Diff. (Tukey's multiple comparisons test, Figure 4C): 27.53
hGPR17L-V96M [3]; [11]
  Mean Diff. (Tukey's multiple comparisons test, Figure 4C): 24.23
hGPR17L-V96M [3]; [12]
  Mean Diff. (Tukey's multiple comparisons test, Figure 4C): 21.87
hGPR17L-V96M [3]; [13]
  Mean Diff. (Tukey's multiple comparisons test, Figure 4C): 17.65
hGPR17L-V96M [3]; [14]
  Mean Diff. (Tukey's multiple comparisons test, Figure 4C): 11.95
hGPR17L-V96M [3]; [15]
  Mean Diff. (Tukey's multiple comparisons test, Figure 4C): 4.328
hGPR17L-V96M [3]; [16]
  Mean Diff. (Tukey's multiple comparisons test, Figure 4C): 1.581
hGPR17L-V96M [3]; [17]
  Mean Diff. (Tukey's multiple comparisons test, Figure 4C): 0.8859
hGPR17L-V96M [3]; [18]
  Mean Diff. (Tukey's multiple comparisons test, Figure 4C): 0.4181
hGPR17L-V96M [3]; [19]
  Mean Diff. (Tukey's multiple comparisons test, Figure 4C): -0.03776
hGPR17L-V96M [4]
  effect on F/I-stimulated GLP-1 secretion: no effect
hGPR17S [5]; 3 µM forskolin
  cAMP Maximum Inhibition (% Inhibition): 48±2.2%
  cAMP Potency (pEC50) (reversal of inhibition): 5.45±0.07
  cAMP Potency (pIC50): 8.83±0.09
hGPR17S [5]; 3 µM forskolin, read-out: cAMP Potency EC50 (reversal of inhibition)
  EC50: 3.6 µM
hGPR17S [5]; 3 µM forskolin-stimulated GloSensor cAMP, read-out: cAMP Potency IC50
  IC50: 0.0015 µM
hGPR17S [5]; 100 μM MDL29,951, 3 µM forskolin
  cAMP Effect of 100 μM MDL (% Inhibition): 13±3.7%
HEK293 cells
  cAMP Effect of 100 μM MDL (% Inhibition): 7.5±3.2%
hGPR17L
  Calcium Emax (Mean Peak ΔF/F): 1.92±0.22
  Calcium Potency (pEC50): 7.29±0.11
hGPR17L; read-out: Calcium Potency EC50
  EC50: 0.051 µM
hGPR17S [6]
  Calcium Emax (Mean Peak ΔF/F): 1.84±0.11
  Calcium Potency (pEC50): 7.37±0.10
hGPR17S [6]; read-out: Calcium Potency EC50
  EC50: 0.043 µM
mGPR17 [7]; HEK293 mGPR17
  Calcium Emax (Mean Peak ΔF/F): 0.70±0.09
  Calcium Potency (pEC50): 6.31±0.05
mGPR17 [7]; HEK293 mGPR17, read-out: Calcium Potency EC50
  EC50: 0.49 µM
mGPR17 [7]; [20]
  calcium response potency, fold less potent than human GPR17 isoforms: approximately 10 fold
  reduction in calcium efficacy as compared to human GPR17 isoforms: > 60%
mGPR17 [8]; GLUTag mGPR17
  maximal calcium stimulation, % of the hGPR17L-WT response: 74 ± 2.7%
  pEC50, calcium responses: 6.17 ± 0.04
mGPR17 [8]; GLUTag mGPR17, read-out: EC50, calcium responses
  EC50: 0.68 µM
mGPR17 [8]; [10]
  Mean Diff. (Tukey's multiple comparisons test, Figure 4C): 72.98
mGPR17 [8]; [11]
  Mean Diff. (Tukey's multiple comparisons test, Figure 4C): 62.99
mGPR17 [8]; [12]
  Mean Diff. (Tukey's multiple comparisons test, Figure 4C): 54.24
mGPR17 [8]; [13]
  Mean Diff. (Tukey's multiple comparisons test, Figure 4C): 47.28
mGPR17 [8]; [14]
  Mean Diff. (Tukey's multiple comparisons test, Figure 4C): 29.04
mGPR17 [8]; [15]
  Mean Diff. (Tukey's multiple comparisons test, Figure 4C): 21.01
mGPR17 [8]; [16]
  Mean Diff. (Tukey's multiple comparisons test, Figure 4C): 6.844
mGPR17 [8]; [17]
  Mean Diff. (Tukey's multiple comparisons test, Figure 4C): -0.1174
mGPR17 [8]; [18]
  Mean Diff. (Tukey's multiple comparisons test, Figure 4C): -1.354
mGPR17 [8]; [19]
  Mean Diff. (Tukey's multiple comparisons test, Figure 4C): -0.5799
mGPR17 [9]
  effect on F/I-stimulated GLP-1 secretion: significantly inhibited
